{
  "source": "patent US20220372099A1",
  "about": "(priority 2019, published 2022)",
  "key": {"[1]": {"assay": "plasma concentrations of Compound A in PV patients", "assay_type": "in vivo, human", "settings": "SC doses of 10 mg to 80 mg, various times after dosing", "procedure": "Plasma concentrations of Compound A were measured at various times after dosing of subcutaneous doses of 10 mg to 80 mg in PV patients. The concentrations increased in a dose-dependent manner and varied based on dose and time of sampling. Compound A concentrations ranged from below detectable (<2 ng/mL) to 866 ng/mL (FIGS. 17A and 17B)."}, "erythropoietic activity [2]": {"system": "erythropoietic activity", "assay": "repeat-dose study, 4 weekly SC doses with 28-day recovery, limiting erythropoiesis", "settings": "SC weekly x4"}, "[3]": {"assay": "Phase I single dose study in healthy subjects", "assay_type": "in vivo, human", "settings": "62 healthy subjects", "source_text": "Compound A is a hepcidin mimetic agent in clinical studies for multiple blood disorders."}, "erythropoietic activity [4]": {"system": "erythropoietic activity", "assay": "repeat-dose study, 13 weekly SC doses with 35-day recovery, limiting erythropoiesis", "assay_type": "in vivo, Cynomolgus monkeys", "source_text": "A cohort of animals (4/sex/group) were sacrificed on Day 92 (Main), and the remaining animals (2/sex/group) were sacrificed on Day 120 following a 35-day recovery period (Recovery)."}, "Polycythemia vera [5]": {"system": "Polycythemia vera", "assay": "Phase 2 study in patients with phlebotomy-requiring Polycythemia vera", "settings": "10-80 mg SC weekly", "description": "Eligible patients were enrolled in the 28-week dose finding part of the Phase 2 trial. […] Body iron status was quantified by monitoring serum ferritin, serum iron, transferrin saturation (TSAT), mean corpuscular volume (MCV) and mean corpuscular hemoglobin (MCH)."}, "Polycythemia vera [6]": {"system": "Polycythemia vera", "settings": "through week 32 (portal vein thrombosis); 6 events with BAT; cited from earlier work"}, "serum iron": {"system": "serum iron", "assay": "PK-PD experiment, serum iron (Cobas Iron2 colorimetric assay)", "assay_type": "in vivo, Cynomolgus monkeys", "settings": "2.93 mg/kg SC", "procedure": "Iron content in plasma/serum was measured using a colorimetric assay on the Cobas c 111 according to instructions from the manufacturer of the assay (assay: IRON2: ACN 661)."}, "Polycythemia vera [7]": {"system": "Polycythemia vera", "settings": "PV mice expressing the orthologous JAK2 mutation; cited from earlier work"}},
  "data": [
    {"compound": "CCCCCCCCCCCCCCCC(=O)N[C@@H](CCC(=O)NCCCC[C@@H]1NC(=O)[C@H]([C@@H](C)CC)NC(=O)[C@@H](NC(=O)[C@@H]2CCCN2C(=O)[C@H](Cc2ccccc2)NC(=O)[C@H](Cc2c[nH]cn2)NC(=O)[C@@H](NC(=O)[C@H](CC(=O)O)NC(=O)CC(C)C)[C@@H](C)O)CSSC[C@@H](C(=O)N[C@@H](CCCCN)C(N)=O)NC(=O)CNC(=O)[C@H](CCCCN)NC(=O)[C@H](CO)NC(=O)[C@H](CCCNC(=N)N)NC(=O)[C@@H]2CCCN2C(=O)[C@H](CCC(=O)O)NC(=O)[C@H](Cc2ccccc2)NC1=O)C(=O)O", "note": "[Compound A]", "values": [
      {"measurement": "plasma concentrations of Compound A, ranged from below detectable (<2 ng/mL) up to", "setting": "[1]", "result": "≤ 866", "unit": "ng/mL"},
      {"measurement": "dose causing pharmacology-mediated anemia (dose- and time-dependent decreases in Hct and Hgb)", "setting": "erythropoietic activity [2]", "result": "≥ 3", "unit": "mg/kg/dose"},
      {"measurement": "adverse events", "setting": "[3]", "result": "without significant adverse events"},
      {"measurement": "dose with hematopoietic hypercellularity in bone marrow, extramedullary hematopoiesis and hemosiderin deposition in liver and spleen", "setting": "erythropoietic activity [4]; SC weekly x13", "result": "≥ 2", "unit": "mg/kg/dose"},
      {"measurement": "dose with increased organ weight (liver and spleen)", "setting": "erythropoietic activity [4]; SC weekly x13", "result": 6, "unit": "mg/kg/dose"},
      {"measurement": "dose with increase in total bilirubin (tBili)", "setting": "erythropoietic activity [4]; during the treatment period", "result": "≥ 2", "unit": "mg/kg/day"},
      {"measurement": "dose with significantly elevated levels of platelets", "setting": "erythropoietic activity [4]; male and female animals", "result": 6, "unit": "mg/kg/dose"},
      {"measurement": "grade of most of the injection site reactions", "setting": "Polycythemia vera [5]", "result": "1-2 grade"},
      {"measurement": "leukocyte count over the course of treatment", "setting": "Polycythemia vera [5]", "result": "remained generally steady"},
      {"measurement": "most frequent adverse events", "setting": "Polycythemia vera [5]", "result": "injection site reaction (ISR) reported by three patients"},
      {"measurement": "platelet counts over the course of treatment", "setting": "Polycythemia vera [5]", "result": "remained generally steady"},
      {"measurement": "tolerability", "setting": "Polycythemia vera [5]", "result": "well tolerated"}
    ]},
    {"compound": "N#CC[C@H](C1CCCC1)n1cc(-c2ncnc3[nH]ccc23)cn1", "note": "[ruxolitinib]", "values": [
      {"measurement": "thromboembolic events", "setting": "Polycythemia vera [6]", "result": 1, "unit": "event"}
    ]},
    {"compound": "Isovaleric acid-DTHFPCIKF(K(PEG11-Palm))PRSK[Sar]CK-NH2 [Compound B]", "values": [
      {"measurement": "time of maximal serum iron reduction", "setting": "serum iron", "result": "about 12 hour"},
      {"measurement": "serum iron lower than the pre-dose levels (maximal reduction)", "setting": "serum iron; about 12 hour post administration", "result": 12, "unit": "fold"}
    ]},
    {"compound": "minihepcidin: hepcidin mimetic administered to PV mice in Casu et al., Blood 2016; not further defined (DTHFPICIF)", "values": [
      {"measurement": "hematocrit", "setting": "Polycythemia vera [7]", "result": "normalizes hematocrit"},
      {"measurement": "splenomegaly", "setting": "Polycythemia vera [7]", "result": "significantly reduces splenomegaly"}
    ]}
  ]
}
